Paper PMC6331810, “Novel Coumarin-Containing Aminophosphonatesas Antitumor Agent: Synthesis, Cytotoxicity, DNA-Binding and Apoptosis Evaluation” (Molecules, 2015)

Legend:
HCT-116 cells = test: Apoptosis and cell cycle analysis by flow cytometry (PI staining); format: cell-based, human; conditions: HCT-116, 48 h at IC50 concentration
Procedure: Compared to the control (untreated cells), changes in the cell cycle distribution of treated HCT-116 cells were evident.
Figure 6 Inhibition of cell cycle progress in HCT-116 cells treated with compounds 8d, 8f, 8c and 8j for 48 h. Cells were fixed with ethanol and stained with PI. Cell cycle distribution was analyzed by flow cytometry. First peak represents sub-G1 peak, which was taken as the fraction of the apoptotic cell population. TEXT PRINTED IN THE PICTURE: 8d: Diploid: 100.00%; Dip G1: 87.24 % at 74.84; Dip G2: 7.42 % at 147.44; Dip S: 5.34 % | 8f: Diploid: 100.00%; Dip G1: 74.25 % at 73.13; Dip G2: 10.86 % at 144.07; Dip S: 14.89 % | 8c: Diploid: 100.00%; Dip G1: 82.72 % at 72.85; Dip G2: 6.28 % at 143.51; Dip S: 11.00% | 8j: Diploid: 100.00%; Dip G1: 15.12 % at 45.10; Dip G2: 52.47 % at 88.84; Dip S: 32.40%; Apoptosis: 4.01 % Mean: 33.84 | Control (−): Diploid: 100.00%; Dip G1: 35.32 % at 52.60; Dip G2: 19.20 % at 103.62; Dip S: 45.84% DOUBTS OF THE COPYIST ABOUT THIS PICTURE: Print is small throughout, so 3, 5, 6, 8 and 9 cannot be told apart with certainty in the values below; best readings are given. / 8d, Dip G1: 87.24 % at 74.84, the 8s uncertain / 8d, Dip S: 5.34, the 5 and 3 uncertain / 8f, Dip G2: 10.86 % at 144.07, the 8 and 6 uncertain / 8f, Dip S: 14.89, the 8 and 9 uncertain / 8c, Dip G1: 82.72 % at 72.85, the 8s and 5 uncertain / 8c, Dip G2: 6.28 % at 143.51, the 6, 8, 3 and 5 uncertain / 8j, Dip G2: 52.47 % at 88.84, the 5 and 8s uncertain / 8j, Apoptosis: 4.01 % Mean: 33.84, the 3s and 8 uncertain / Control (−), Dip G1: 35.32 % at 52.60, the 3s, 5s and 6 uncertain / Control (−), Dip G2: 19.20 % at 103.62, the 9, 3 and 6 uncertain / Control (−), Dip S: 45.84, the 5 and 8 uncertain / Control (−) is an untreated control, not a compound; it is included because results are printed with it. / G2/G1: 1.97 and %CV, printed in every plot, are left out as fit parameter and statistic.
Apoptosis was quantified by assessing the fraction of cells with sub-G1 DNA content by flow cytometry. The cells lines were treated with indicated concentrations of compounds […]. After incubated for 48 h, cells were washed twice with ice-cold PBS, fixed and permeabilized with ice-cold 70% ethanol at −20 °C overnight. The cells were treated with 100 μg/mL RNase A at 37 °C for 30 min after washed with ice-cold PBS, and finally stained with 1 mg/mL propidium iodide (PI) in the dark at 4 °C for 30 min. Analysis was performed with the system software (Cell Quest; BD Biosciences, Franklin Lakes, NJ, USA).

CT-DNA = test: Spectrofluorimetric titration with CT-DNA (Stern-Volmer and binding constants); set-up: species or system calf; conditions: from F0/F-1 vs [DNA]; Tris-HCl buffer pH 7.2
Procedure: The DNA binding properties of compounds 8a–8j were evaluated based on their affinity or interaction with CT-DNA, measured with fluorescence spectrometric titration.
The calibration curve for determination of DNA was constructed by adding different proportion of DNA to a 2.0 × 10^−3 M compound 8j solution (pH = 7.2 Tris-HCl buffer). […] [Q] is the concentration of quencher. KSV is the Stern-Volmer constant and KQ is the bimolecular quenching rate constant. τ0 is the lifetime of the fluorophore in the absence of quencher and for most biomolecules τ0 is about 10^−8 s. The Stern-Volmer constant, KSV, for compound 8j has been determined from the plot of F0/F-1 vs. [DNA] (see Figure 2) and found to be 5.11 × 10^2 M^−1.
When small molecules binding independently to a set of equivalent sites on a macromolecule, the equilibrium between free and bound molecules is given by the equation [28]: (2) lg (F0/F-1) = lgKb + nlg[Q] where Kb and n are the binding constant and the number of binding sites, respectively, which could be got from the curve of lg(F0/F-1) vs. lg[Q]. The plot of lg(F0/F-1) vs. lg[DNA] has been shown in Figure 3 for compound 8j and indicates a simple binding process for the compound.
All fluorescence experiments were carried out on a Perkin-Elmer LS50B luminescence spectrometer. Fluorescence spectra were measured at rt using quartz cells of 1cm path. To the solutions of the drugs (2.0 × 10^−3 M) in 2.5 mL Tris-HCl buffer (pH = 7.2) were added aliquots of CT-DNA (2.0 × 10^−3 M) solution containing drugs (2.0 × 10^−3 M) in 2.5 mL Tris-HCl buffer (pH = 7.2). This operation ensured that the concentration of CT-DNA increased gradually from 0 to 360 µM, while the concentrations of drugs were kept constant. The mixing was achieved by stirring for 10min. Then, the corresponding fluorescence spectra were measured (ex 325 nm, ex/em 1.5 nm/1.5 nm). Binding constants were derived from the modified.

GelRed/CT-DNA = test: GelRed-DNA competitive binding (fluorescence quenching); set-up: species or system calf; conditions: I0/I vs [Q]; [GelRed]/[DNA] = 1:10, ex 350 nm, em 590 nm

| Structure (SMILES) | G1-phase population (HCT-116 cells; untreated cells 35.32%) | KSV (Stern-Volmer constant) (CT-DNA) | Kq (quenching constant of GelRed bound to DNA) (GelRed/CT-DNA) | Cell cycle effect in words (HCT-116 cells) |
| --- | --- | --- | --- | --- |
| CCOP(=O)(OCC)C(NC(=O)CCOc1ccc2c(C)cc(=O)oc2c1)c1cccc(Br)c1 (stereo not drawn) [Compound 8f, Diethyl(3-(4-methyl-2-oxo-2H-chromen-7-yloxy)propanamido)(3-bromophenyl)methylphospho-nate] | 74.25% | 412 M⁻¹ | 1730 M⁻¹ | – |
| CCOP(=O)(OCC)C(C)(NC(=O)CCOc1ccc2c(C)cc(=O)oc2c1)c1ccccc1 (stereo not drawn) [Compound 8j, Diethyl 1-(3-(4-methyl-2-oxo-2H-chromen-7-yloxy)propanamido)-1-phenylethylphosphonate] | – | 511 M⁻¹ | 2350 M⁻¹ | accumulation of cells in the G2 phase accompanying reduction in the G1 phase |
